Measured values taken from paper PMC9800739, “Epigenetic drugs in somatostatin type 2 receptor radionuclide theranostics and radiation transcriptomics in mouse pheochromocytoma models” (Theranostics, 2023).
Entries after “also recorded” stand apart in the source; their conditions may differ.

Assays:
[1] = test system: MPC and MTT allograft mice; experiment: Biodistribution / retention of [64Cu]Cu-DOTA-TATE; format: in vivo, mouse; settings: DAC-treated animals; no relationship with SUV changes in tumors
Experimental: Radiotracer was injected as described for PET imaging. Mice were sacrificed 60 min after radiotracer injection, organs were excised and weighted, and activity in tissue samples was measured using the gamma counter Wizard (PerkinElmer, Waltham, MA, USA). Standardized uptake values were determined.
107 (30%), muscle (0%), kidneys (25%), and liver (35%).
116 attenuation. Images were post-processed and analyzed using ROVER (ABX). Three-
118 kidneys (15%), and liver (25%).
119 1.6 Sstr2 promoter methylation analysis
122 Bisulfite Kit (Qiagen, Hilden, Germany). Bisulfite-converted DNA was amplified using a
Amplicon size (195bp) was confirmed
125 Switzerland). Electropherograms were compared to PCR products amplified from bisulfite-
127 an unmethylated 900bp-DNA fragment. The latter was generated by amplification of genomic
129 of primers are provided in (Table S 2).

SSTR2 [2] = target: T1, SSTR2 (Mus musculus, UniProt P30875); experiment: [68Ga]Ga-DOTA-TATE radioligand uptake in cells; format: cell-based; settings: MPC cells; 37 °C; VPA 10^-3 mol/L; DAC 5×10^-7 mol/L; attributed to cytotoxic effects
T1 construct: endogenous in cells; host or cells: MPC and MTT mouse pheochromocytoma cells (cell homogenates), untreated or treated with VPA + DAC
Experimental: (§1) Cells were seeded into collagen-coated microplates or collagen-coated flasks 24 h before epigenetic treatment (ET) start and treated twice (24 h interval) with VPA and DAC, as single and combination doses, respectively. Treatment effects were investigated two to six days (d) after final ET. Preparation of epigenetic drugs is reported in Supplemental Information 1.1.
Radionuclide production and supply are described in Supplemental Information 1.2.
Cells were seeded into collagen-coated 24-well microplates (2.5×10^4/cm^2) and uptake of [^68Ga]Ga-DOTA-TATE was measured three and seven days after ET start. Cells were incubated with fresh cell culture medium containing 0.8 MBq/mL [^68Ga]Ga-DOTA-TATE (Am = 10 MBq/nmol), equivalent to 80 nmol/L, for 60 min at 4 °C or 37 °C. Cells were washed and lysed, and activity of cell lysates was measured as described previously. Total protein in cell lysates was measured using the Qubit protein assay (Thermo Fisher Scientific). Uptake of [^68Ga]Ga-DOTA-TATE was reported as % initial dose per mg of protein.

BON‑1 xenografts = test system: BON‑1 xenografts; design: method as in PMID 27363833; settings: after treatment with DAC; cited from earlier work
SSTR2 [3] = target: T1, SSTR2; experiment: Immunoblotting of SSTR2 in cells after epigenetic treatment; format: cell-based
Experimental: as §1
Cells seeded into collagen-coated flasks (2.5×10^4/cm^2) were harvested three days after treatment start by incubation with Dulbecco's phosphate-buffered saline containing 2 mmol/L EDTA at 4 °C. Cell pellets were frozen and stored at -70°C. Frozen tumor tissue obtained from allograft mice was cut into 4 × 4 mm pieces.
Protein extraction from cells and tissues, gel electrophoresis, and immunoblotting was performed as described previously with some modifications. In brief, tissue homogenization was performed using the gentleMACS™ dissociator (Miltenyi Biotech, Bergisch Gladbach, Germany). Immunodetection of proteins was performed using the recombinant primary antibodies anti-SSTR2 [UMB1] (Abcam, Cambridge, UK), anti-CHGA [C-20] (Santa Cruz Biotechnology, Heidelberg, Germany), and anti-ACTB [A5316] (Sigma-Aldrich). Densitometric analysis of protein bands was performed using ImageQuant TL (GE Healthcare, Chicago, IL, USA).

MPC and MTT cells = experiment: Viability assay (colorimetric tetrazolium dye); format: cell-based, mouse; settings: MPC and MTT cells (similar); three days after treatment start; two treatments at 24 h interval
Experimental: Viability of cells seeded into collagen-coated 96-well microplates (6×10^4/cm^2) was measured three days after treatment start using a colorimetric tetrazolium dye assay [39]. Doxorubicin served as positive control.

SSTR2 [4] = test system: SSTR2; design: method as in PMID 26211366; settings: neuroendocrine tumor models; cited from earlier work
[5] = intraperitoneal doses applied; cited from earlier work
Text: The estimated human equivalent doses corresponded to 20‒30% of the clinically applied tumor-suppressive doses in patients, [45]. Lower doses were used, since we focused on the epigenetic modulation effects rather than the cytotoxic effects of VPA and DAC.

T1 sequence (P30875 whole entry): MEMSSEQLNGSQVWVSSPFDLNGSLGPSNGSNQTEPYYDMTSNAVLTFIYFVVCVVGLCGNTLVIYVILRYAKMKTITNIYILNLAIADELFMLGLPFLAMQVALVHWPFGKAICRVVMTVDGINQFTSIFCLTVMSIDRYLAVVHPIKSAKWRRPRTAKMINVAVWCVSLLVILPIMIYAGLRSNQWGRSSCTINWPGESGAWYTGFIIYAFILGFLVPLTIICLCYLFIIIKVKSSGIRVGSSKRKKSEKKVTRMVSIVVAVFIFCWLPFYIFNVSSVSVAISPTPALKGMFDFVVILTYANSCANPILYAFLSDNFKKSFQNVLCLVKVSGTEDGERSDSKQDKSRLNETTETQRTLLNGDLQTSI

Compound	activity retention in the liver, effect [1]	[68Ga]Ga-DOTA-TATE uptake (effect) (SSTR2 [2])	increase in [68Ga]Ga-DOTA-TATE uptake (BON‑1 xenografts)	induction of SSTR2 protein levels and radiotracer uptake, comparison (SSTR2 [3]; MPC and MTT models)	SSTR2 up-regulation compared to controls (SSTR2/ACTB) (SSTR2 [3]; MPC cells, DAC 10^-6 mol/L, final ET + 2 d) [fold]	LD50 (MPC and MTT cells) [mol/L]	SSTR2 stimulation (effect) (SSTR2 [4])	time for serum levels to normalize (VPA) [5]
Nc1ncn([C@H]2C[C@H](O)[C@@H](CO)O2)c(=O)n1 [DAC, 5-Aza-2'-deoxycytidine]	significantly higher in DAC-treated animals	impairment of [68Ga]Ga-DOTA-TATE uptake; also recorded: reduced radiotracer uptake at 37 °C	approximately 2 fold	more effectively compared to VPA	5.3	6.3e-07		
CCCC(CCC)C(=O)O [VPA, valproic acid]		impairment of [68Ga]Ga-DOTA-TATE uptake; also recorded: reduced radiotracer uptake at 37 °C				0.0013	stimulate SSTR2	eight
